Measurements taken from patent US20150105252A1, “SUBSTITUTED PYRAZOLES AS HERBICIDES” (E I DU PONT DE NEMOURS AND COMPANY, priority 2013, published 2015).

Legend:
velvetleaf = experiment: Test C preemergence; assay type: in vivo, Abutilon theophrasti
How it was run: (§1)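 Seeds sown in loam–sand blend and treated preemergence with test chemicals in non-phytotoxic solvent with surfactant; postemergence plants in peat-based medium, treated at 2–18 cm (1- to 4-leaf stage). Greenhouse 13 to 15 days, then visual rating versus controls, 0 (no effect) to 100 (complete control).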

barnyardgrass [1] = experiment: Test A preemergence; assay type: in vivo, Echinochloa crus-galli; details: preemergence
How it was run: (§2)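 Pre- and postemergence greenhouse test; loam+sand; cpd in non-phytotox. solvent/surfactant; post at 1–2 leaf, 2–10 cm; visual score ~10 d, 0 = none, 100 = complete control.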

foxtail, giant [2] = experiment: Test C preemergence; assay type: in vivo, Setaria faberii
How it was run: as §1

barnyardgrass [3] = experiment: Test C preemergence; assay type: in vivo, Echinochloa crus-galli; details: preemergence
How it was run: as §1

foxtail, giant [4] = experiment: Test A preemergence; assay type: in vivo, Setaria faberii; details: preemergence
How it was run: as §2

foxtail, giant [5] = experiment: Test A postemergence; assay type: in vivo, Setaria faberii; details: Postemergence
How it was run: as §2

waterhemp = experiment: Test C preemergence; assay type: in vivo, Amaranthus rudis
How it was run: as §1

johnsongrass = experiment: Test C preemergence; assay type: in vivo, Sorghum halepense
How it was run: as §1

pigweed = experiment: Test C preemergence; assay type: in vivo, Amaranthus retroflexus
How it was run: as §1

crabgrass, large = experiment: Test C preemergence; assay type: in vivo, Digitaria sanguinalis
How it was run: as §1

soybean = experiment: Test C preemergence; assay type: in vivo, Glycine max
How it was run: as §1

corn [6] = experiment: Test C preemergence; assay type: in vivo, Zea mays
How it was run: as §1

morningglory = experiment: Test A postemergence; assay type: in vivo, Ipomoea spp.; details: Postemergence
How it was run: as §2

corn [7] = experiment: Test A preemergence; assay type: in vivo, Zea mays; details: preemergence
How it was run: as §2

wheat = experiment: Test A postemergence; assay type: in vivo, Triticum aestivum; details: Postemergence
How it was run: as §2

[8] = Preemergence, rate head not shown (block before 16 g ai/ha), scale 0 to 100
[9] = preemergence, 62 g ai/ha, scale 0 to 100 (0 no effect, 100 complete control), 13 to 15 days
[10] = preemergence, 125 g ai/ha, 13 to 15 days, scale 0 to 100, 0 = no effect, 100 = complete control
[11] = preemergence, 250 g ai/ha, scale 0 to 100, 0 is no effect, 100 is complete control
[12] = 125 g ai/ha, visual injury approx. 10 days after treatment
[13] = 500 g ai/ha, visual injury after approx. 10 days, 0 to 100 scale (0 no effect, 100 complete control)
[14] = 125 g ai/ha, 0 to 100 scale, 0 no effect, 100 complete control
[15] = 500 g ai/ha, 0 to 100 scale (0 no effect, 100 complete control)

CCc1cc(C(=O)NC2CC2)nn1Cc1cc(C(F)(F)C(F)(F)F)nn1C [Compound 226]
Plant response rating, Velvetleaf (velvetleaf; [8]): 25 | Velvetleaf plant response rating (velvetleaf; [9]): 80 | Plant response rating, Velvetleaf (velvetleaf; [10]): 100 | Velvetleaf plant response rating (velvetleaf; [11]): 100 | Barnyardgrass plant response rating (0 to 100 scale, 0 is no effect, 100 is complete control) (barnyardgrass [1]; [12]): 80 | Barnyardgrass plant response rating (barnyardgrass [1]; [13]): 100 | Plant response rating, Foxtail, Giant (foxtail, giant [2]; [8]): 80 | Foxtail, Giant plant response rating (foxtail, giant [2]; [9]): 90 | Plant response rating, Foxtail, Giant (foxtail, giant [2]; [10]): 100 | Foxtail, Giant plant response rating (foxtail, giant [2]; [11]): 100 | Barnyardgrass plant response rating (barnyardgrass [3]; 31 g ai/ha, visual rating, scale 0 to 100 (0 no effect, 100 complete control), 13 to 15 days): 10 | Barnyardgrass plant response rating (barnyardgrass [3]; 62 g ai/ha, scale 0 to 100 (0 no effect, 100 complete control), 13 to 15 days): 65 | Plant response rating, Barnyardgrass (barnyardgrass [3]; 125 g ai/ha, 13 to 15 days, scale 0 to 100, 0 = no effect, 100 = complete control): 95 | Barnyardgrass plant response rating (barnyardgrass [3]; 250 g ai/ha, scale 0 to 100, 0 is no effect, 100 is complete control): 100 | Foxtail, Giant plant response rating (0 to 100 scale) (foxtail, giant [4]; [12]): 100 | Foxtail, Giant plant response rating (foxtail, giant [4]; [13]): 100 | Foxtail, Giant plant response rating (foxtail, giant [5]; [14]): 80 | Foxtail, Giant plant response rating (foxtail, giant [5]; [15]): 90 | Plant response rating, Waterhemp (waterhemp; [8]): 100 | Waterhemp plant response rating (waterhemp; [9]): 100 | Plant response rating, Waterhemp (waterhemp; [10]): 100 | Waterhemp plant response rating (waterhemp; [11]): 100 | Plant response rating, Johnsongrass (johnsongrass; [8]): 10 | Johnsongrass plant response rating (johnsongrass; [9]): 55 | Plant response rating, Johnsongrass (johnsongrass; [10]): 100 | Johnsongrass plant response rating (johnsongrass; [11]): 85 | Plant response rating, Pigweed (pigweed; [8]): 100 | Pigweed plant response rating (pigweed; [9]): 100 | Plant response rating, Pigweed (pigweed; [10]): 100 | Pigweed plant response rating (pigweed; [11]): 100 | Plant response rating, Crabgrass, Large (crabgrass, large; [8]): 80 | Crabgrass, Large plant response rating (crabgrass, large; [9]): 100 | Plant response rating, Crabgrass, Large (crabgrass, large; [10]): 100 | Crabgrass, Large plant response rating (crabgrass, large; [11]): 100 | Plant response rating, Soybean (soybean; [8]): 10 | Soybean plant response rating (soybean; [9]): 70 | Plant response rating, Soybean (soybean; [10]): 95 | Soybean plant response rating (soybean; [11]): 100 | Plant response rating, Corn (corn [6]; Preemergence, rate head not shown (block before 16 g ai/ha), scale 0 to 100, 100 is complete control): 10 | Corn plant response rating (corn [6]; [9]): 15 | Plant response rating, Corn (corn [6]; [10]): 30 | Corn plant response rating (corn [6]; [11]): 70 | Morningglory plant response rating (morningglory; [14]): 70 | Morningglory plant response rating (morningglory; [15]): 100 | Corn plant response rating (0 to 100 scale) (corn [7]; [12]): 30 | Corn plant response rating (corn [7]; [13]): 50 | Wheat plant response rating (wheat; [14]): 60 | Wheat plant response rating (wheat; [15]): 90
